Ten compounds from ChEMBL document CHEMBL5465560, “Selectivity Literature for EUbOPEN Chemogenomic Library” (2024) can be followed below.

Assay [1] concerns the target Rho-associated protein kinase 1 (Homo sapiens) (UniProt Q13464). The assay can be described thus: Selectivity interaction (Kinase panel (Z-LYTE Assay)) EUB0001632a ROCK1. The settings on record: at 10 µM.
The target of assay [2] is Cyclin-dependent kinase 5 (Homo sapiens, UniProt Q00535). Put plainly: Selectivity interaction (Kinase panel (KiNativ target engagement assay in Jurkat cells)) EUB0001635a CDK5. The assay is classed as cell-based. To be noted: at 1 µM.
The target of assay [3] is Calcium/calmodulin-dependent protein kinase type II subunit alpha (Homo sapiens, UniProt Q9UQM7). The assay can be described thus: Selectivity interaction (Ambit KINOMEscan and KiNATiv profiling in Jurkat cells) EUB0000090b CAMK2A. In kind it is cell-based. To be noted: at 1 µM.
Assay [4] deals with Calcium/calmodulin-dependent protein kinase type II subunit beta (Homo sapiens) (UniProt Q13554). The assay can be described thus: Selectivity interaction (KinomeScan (DiscoverX)) EUB0000229b CAMK2B. To be noted: at 10 µM.
In assay [5] the target is T1, Serine/threonine-protein kinase TAO1 (Homo sapiens) (UniProt Q7L7X3).
T1 sequence (whole entry): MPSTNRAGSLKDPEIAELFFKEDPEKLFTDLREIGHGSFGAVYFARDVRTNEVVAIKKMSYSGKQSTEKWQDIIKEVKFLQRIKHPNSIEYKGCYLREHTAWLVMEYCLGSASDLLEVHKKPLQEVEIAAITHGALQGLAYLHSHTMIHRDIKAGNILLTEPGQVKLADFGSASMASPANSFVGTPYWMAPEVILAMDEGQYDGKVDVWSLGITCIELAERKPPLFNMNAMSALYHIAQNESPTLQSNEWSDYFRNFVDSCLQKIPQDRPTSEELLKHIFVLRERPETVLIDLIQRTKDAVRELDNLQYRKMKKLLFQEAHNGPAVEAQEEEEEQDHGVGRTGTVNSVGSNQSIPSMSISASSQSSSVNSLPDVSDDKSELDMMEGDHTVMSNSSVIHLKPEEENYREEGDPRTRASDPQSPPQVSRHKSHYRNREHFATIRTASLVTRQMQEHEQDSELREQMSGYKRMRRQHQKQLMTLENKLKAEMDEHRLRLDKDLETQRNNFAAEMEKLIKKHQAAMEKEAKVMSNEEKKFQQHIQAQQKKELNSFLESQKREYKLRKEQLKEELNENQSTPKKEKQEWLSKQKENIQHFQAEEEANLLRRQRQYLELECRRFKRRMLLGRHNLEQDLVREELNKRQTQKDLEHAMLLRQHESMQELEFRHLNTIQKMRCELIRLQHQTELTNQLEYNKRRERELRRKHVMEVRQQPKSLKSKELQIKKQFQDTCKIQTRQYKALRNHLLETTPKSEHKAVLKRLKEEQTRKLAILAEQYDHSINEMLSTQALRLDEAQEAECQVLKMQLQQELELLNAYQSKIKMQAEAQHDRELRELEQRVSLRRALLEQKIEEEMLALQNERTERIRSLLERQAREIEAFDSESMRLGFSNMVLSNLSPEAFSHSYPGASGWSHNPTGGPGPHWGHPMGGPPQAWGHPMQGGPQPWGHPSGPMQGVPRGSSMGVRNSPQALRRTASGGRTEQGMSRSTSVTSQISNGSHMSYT
Put plainly: Selectivity interaction (KinomeScan (DiscoverX)) EUB0001619a TAOK1. The settings on record: at 1 µM.

Assay [6] concerns the target MAP kinase-interacting serine/threonine-protein kinase 2 (Homo sapiens, UniProt Q9HBH9). The settings on record: at 10 µM.
Assay [7] addresses T2, Rhodopsin kinase GRK1 (Homo sapiens) (UniProt Q15835).
T2 sequence (whole entry): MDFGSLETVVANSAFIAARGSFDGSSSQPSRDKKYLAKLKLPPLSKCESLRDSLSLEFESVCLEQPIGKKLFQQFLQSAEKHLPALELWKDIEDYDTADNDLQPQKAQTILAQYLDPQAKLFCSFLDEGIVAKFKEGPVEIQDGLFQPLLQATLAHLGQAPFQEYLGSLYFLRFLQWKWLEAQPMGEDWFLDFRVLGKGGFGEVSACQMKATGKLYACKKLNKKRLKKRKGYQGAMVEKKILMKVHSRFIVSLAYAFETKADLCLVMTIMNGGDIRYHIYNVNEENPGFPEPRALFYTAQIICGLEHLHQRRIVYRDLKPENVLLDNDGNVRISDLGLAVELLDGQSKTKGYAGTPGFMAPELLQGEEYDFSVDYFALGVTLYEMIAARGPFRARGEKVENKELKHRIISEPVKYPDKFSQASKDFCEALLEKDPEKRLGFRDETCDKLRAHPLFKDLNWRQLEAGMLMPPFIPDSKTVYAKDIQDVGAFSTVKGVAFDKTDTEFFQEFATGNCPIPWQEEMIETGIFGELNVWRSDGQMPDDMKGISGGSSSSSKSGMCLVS
Put plainly: Selectivity interaction (KinomeScan (DiscoverX)) EUB0001049a GRK1. The settings on record: at 1 µM.

In assay [8] the target is Kappa-type opioid receptor (Homo sapiens, UniProt P41145). Put plainly: Selectivity interaction (Panel of kinases, GPCRs, ion channels and transporters (enzymatic assay)) EUB0000223bCl OPRK1.
Assay [9] deals with T3, Megakaryocyte-associated tyrosine-protein kinase (Homo sapiens) (UniProt P42679).
T3 sequence (whole entry): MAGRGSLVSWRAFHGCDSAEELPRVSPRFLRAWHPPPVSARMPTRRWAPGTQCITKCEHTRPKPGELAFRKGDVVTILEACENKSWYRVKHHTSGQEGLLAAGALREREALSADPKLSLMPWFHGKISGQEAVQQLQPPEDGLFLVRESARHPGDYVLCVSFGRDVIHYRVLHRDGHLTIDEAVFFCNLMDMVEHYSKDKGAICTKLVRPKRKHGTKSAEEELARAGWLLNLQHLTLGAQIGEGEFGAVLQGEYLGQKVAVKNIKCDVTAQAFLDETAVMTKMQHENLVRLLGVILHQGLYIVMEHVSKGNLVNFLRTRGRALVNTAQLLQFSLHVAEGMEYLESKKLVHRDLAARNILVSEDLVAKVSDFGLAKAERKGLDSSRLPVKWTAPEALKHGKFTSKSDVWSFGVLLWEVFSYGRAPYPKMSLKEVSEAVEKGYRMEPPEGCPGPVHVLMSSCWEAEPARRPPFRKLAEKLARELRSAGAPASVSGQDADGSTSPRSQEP
The assay can be described thus: Selectivity interaction (KinomeScan (DiscoverX)) EUB0000045b MATK.

The target of assay [10] is Serine/threonine-protein kinase 32A (Homo sapiens) (UniProt Q8WU08). Put plainly: Selectivity interaction (KinomeScan (DiscoverX)) EUB0000618a STK32A. The settings on record: at 10 µM.
Chain of Serine/threonine-protein kinase 32A (Homo sapiens) (Q8WU08 whole entry): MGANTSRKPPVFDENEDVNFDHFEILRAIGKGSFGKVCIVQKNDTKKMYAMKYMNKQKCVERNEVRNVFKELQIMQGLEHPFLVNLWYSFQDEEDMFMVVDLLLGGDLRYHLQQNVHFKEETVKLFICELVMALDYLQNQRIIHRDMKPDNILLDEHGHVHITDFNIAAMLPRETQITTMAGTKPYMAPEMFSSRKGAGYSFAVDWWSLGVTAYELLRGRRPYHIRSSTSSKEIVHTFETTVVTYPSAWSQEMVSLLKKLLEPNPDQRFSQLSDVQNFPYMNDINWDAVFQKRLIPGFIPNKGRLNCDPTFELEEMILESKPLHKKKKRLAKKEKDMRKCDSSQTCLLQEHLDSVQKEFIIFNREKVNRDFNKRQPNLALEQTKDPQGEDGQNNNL

Chain of Cyclin-dependent kinase 5 (Q00535 whole entry, looked up): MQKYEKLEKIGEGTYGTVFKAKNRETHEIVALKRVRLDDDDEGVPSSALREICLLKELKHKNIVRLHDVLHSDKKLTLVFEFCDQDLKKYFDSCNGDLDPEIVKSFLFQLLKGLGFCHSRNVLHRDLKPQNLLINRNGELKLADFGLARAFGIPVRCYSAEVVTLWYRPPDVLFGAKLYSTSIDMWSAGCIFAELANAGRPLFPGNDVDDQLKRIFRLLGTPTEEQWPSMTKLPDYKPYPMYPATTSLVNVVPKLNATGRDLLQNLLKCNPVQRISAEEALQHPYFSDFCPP
Chain of Rho-associated protein kinase 1 (Homo sapiens) (Q13464 2-1354 limits assumed): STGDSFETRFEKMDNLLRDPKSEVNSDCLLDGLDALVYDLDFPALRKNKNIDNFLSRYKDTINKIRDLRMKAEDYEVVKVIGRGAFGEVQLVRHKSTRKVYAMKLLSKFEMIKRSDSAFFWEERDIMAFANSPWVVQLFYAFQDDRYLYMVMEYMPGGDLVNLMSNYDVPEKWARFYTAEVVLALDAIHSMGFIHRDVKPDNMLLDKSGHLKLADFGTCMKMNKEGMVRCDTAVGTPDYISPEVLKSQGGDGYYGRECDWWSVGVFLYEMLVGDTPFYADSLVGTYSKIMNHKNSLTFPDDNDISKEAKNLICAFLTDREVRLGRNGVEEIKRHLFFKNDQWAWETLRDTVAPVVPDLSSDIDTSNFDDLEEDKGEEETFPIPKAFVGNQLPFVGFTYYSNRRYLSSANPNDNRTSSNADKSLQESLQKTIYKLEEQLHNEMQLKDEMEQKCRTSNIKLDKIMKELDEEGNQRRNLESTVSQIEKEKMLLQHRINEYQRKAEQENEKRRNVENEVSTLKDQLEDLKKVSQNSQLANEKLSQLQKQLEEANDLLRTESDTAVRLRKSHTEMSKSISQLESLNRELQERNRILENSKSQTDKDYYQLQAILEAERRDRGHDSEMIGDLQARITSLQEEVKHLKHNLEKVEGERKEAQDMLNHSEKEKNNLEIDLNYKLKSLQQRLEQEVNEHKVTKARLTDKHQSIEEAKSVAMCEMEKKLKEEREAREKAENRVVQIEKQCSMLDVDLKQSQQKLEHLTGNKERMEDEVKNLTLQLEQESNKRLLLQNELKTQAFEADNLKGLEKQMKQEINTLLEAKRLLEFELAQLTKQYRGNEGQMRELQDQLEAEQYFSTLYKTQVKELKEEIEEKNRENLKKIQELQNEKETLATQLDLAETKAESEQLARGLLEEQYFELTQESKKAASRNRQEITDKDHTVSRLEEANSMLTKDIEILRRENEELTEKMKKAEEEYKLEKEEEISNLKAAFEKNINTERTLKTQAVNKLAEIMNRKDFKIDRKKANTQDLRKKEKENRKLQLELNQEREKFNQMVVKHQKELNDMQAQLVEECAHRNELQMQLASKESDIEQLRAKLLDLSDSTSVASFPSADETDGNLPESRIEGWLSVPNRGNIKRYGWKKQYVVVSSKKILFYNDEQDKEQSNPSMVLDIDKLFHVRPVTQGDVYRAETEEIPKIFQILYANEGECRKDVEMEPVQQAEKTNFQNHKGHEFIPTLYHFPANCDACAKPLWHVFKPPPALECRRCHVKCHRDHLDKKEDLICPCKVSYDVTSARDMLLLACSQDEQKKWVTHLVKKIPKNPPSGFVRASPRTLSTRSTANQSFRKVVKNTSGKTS
Chain of Calcium/calmodulin-dependent protein kinase type II subunit alpha (Q9UQM7 whole entry): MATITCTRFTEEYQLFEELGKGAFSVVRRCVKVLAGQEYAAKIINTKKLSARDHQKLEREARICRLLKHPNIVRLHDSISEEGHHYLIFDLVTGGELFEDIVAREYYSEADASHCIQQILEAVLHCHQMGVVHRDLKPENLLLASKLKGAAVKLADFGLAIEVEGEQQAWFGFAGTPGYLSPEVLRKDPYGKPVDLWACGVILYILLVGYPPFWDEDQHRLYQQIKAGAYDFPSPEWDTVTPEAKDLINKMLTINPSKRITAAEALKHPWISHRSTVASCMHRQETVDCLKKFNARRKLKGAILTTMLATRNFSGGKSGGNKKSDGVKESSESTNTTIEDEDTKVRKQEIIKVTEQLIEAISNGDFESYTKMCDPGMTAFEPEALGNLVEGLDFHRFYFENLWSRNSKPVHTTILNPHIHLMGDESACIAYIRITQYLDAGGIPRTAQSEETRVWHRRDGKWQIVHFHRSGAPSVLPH
Chain of Calcium/calmodulin-dependent protein kinase type II subunit beta (Homo sapiens) (Q13554 whole entry): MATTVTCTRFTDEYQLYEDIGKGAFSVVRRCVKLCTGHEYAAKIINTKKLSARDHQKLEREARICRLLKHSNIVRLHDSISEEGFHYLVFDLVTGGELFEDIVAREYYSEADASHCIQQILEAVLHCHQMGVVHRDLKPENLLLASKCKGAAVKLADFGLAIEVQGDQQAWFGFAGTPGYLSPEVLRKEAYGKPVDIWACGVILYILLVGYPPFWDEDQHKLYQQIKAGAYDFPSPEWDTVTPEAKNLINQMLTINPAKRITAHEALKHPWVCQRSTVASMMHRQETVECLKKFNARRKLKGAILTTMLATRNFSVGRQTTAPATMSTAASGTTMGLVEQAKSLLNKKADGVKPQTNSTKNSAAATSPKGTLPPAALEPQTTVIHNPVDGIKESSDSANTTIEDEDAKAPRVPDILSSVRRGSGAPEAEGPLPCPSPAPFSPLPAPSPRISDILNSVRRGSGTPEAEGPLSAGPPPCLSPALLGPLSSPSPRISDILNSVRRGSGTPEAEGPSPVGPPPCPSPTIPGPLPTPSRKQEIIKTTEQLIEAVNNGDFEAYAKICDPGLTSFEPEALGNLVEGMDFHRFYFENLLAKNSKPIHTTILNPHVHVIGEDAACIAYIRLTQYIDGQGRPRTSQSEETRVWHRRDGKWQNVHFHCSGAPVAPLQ
Chain of MAP kinase-interacting serine/threonine-protein kinase 2 (Q9HBH9 whole entry, looked up): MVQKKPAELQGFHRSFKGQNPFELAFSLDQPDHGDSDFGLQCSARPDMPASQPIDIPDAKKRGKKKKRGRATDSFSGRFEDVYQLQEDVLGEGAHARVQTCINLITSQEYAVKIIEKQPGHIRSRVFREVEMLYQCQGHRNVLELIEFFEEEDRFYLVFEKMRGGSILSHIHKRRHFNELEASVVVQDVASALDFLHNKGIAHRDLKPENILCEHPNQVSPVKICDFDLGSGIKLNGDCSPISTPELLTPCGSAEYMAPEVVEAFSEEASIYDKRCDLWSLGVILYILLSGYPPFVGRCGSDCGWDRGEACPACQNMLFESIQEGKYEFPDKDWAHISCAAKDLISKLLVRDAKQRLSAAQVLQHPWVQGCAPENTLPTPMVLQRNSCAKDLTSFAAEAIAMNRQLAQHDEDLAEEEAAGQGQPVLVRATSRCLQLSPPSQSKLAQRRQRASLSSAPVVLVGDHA
Chain of Kappa-type opioid receptor (P41145 whole entry): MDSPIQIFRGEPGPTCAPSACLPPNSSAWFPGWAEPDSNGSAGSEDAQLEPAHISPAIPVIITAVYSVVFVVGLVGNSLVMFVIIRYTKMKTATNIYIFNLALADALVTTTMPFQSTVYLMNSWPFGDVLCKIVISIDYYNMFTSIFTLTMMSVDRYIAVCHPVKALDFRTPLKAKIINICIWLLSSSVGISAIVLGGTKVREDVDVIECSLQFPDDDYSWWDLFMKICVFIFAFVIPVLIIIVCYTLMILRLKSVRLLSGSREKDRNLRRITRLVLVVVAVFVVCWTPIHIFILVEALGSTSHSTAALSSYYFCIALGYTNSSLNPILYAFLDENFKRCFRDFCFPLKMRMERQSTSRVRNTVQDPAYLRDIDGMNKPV

Regarding `Cn1cc(-n2cnc3c(NCc4nc5cc(Cl)c(Cl)cc5[nH]4)nc(N4CCOCC4)nc32)cn1`, the % of control in [1] is -2.74%.

As for `C=CC(=O)Nc1ccc(C(=O)Nc2[nH]nc3c2CN(C(=O)N[C@H](CN(C)C)c2ccccc2)C3(C)C)cc1`, the % of engagement was -1.7% in assay [2] (Selectivity number of off-targets 0.0, Selectivity number of targets 233.0, Source Knowledge https://www.sciencedirect.com/science/article/pii/S2451945619300674?via%3Dihub) and 0.4% in [2]. `CN(C)C/C=C/C(=O)Nc1ccc(C(=O)N2CCCC(Nc3ncc(Cl)c(-c4c[nH]c5ccccc45)n3)C2)cc1` (configuration not stated): in assay [3], the % of control turned out to be 99%. On to `COc1cc(N(C)c2ccnc3ccc(C(F)(F)F)cc23)cc(OC)c1OC`, for which the % binding in [4] worked out at 83%.

On to `N#Cc1cccc(-c2c[nH]c3ncnc(N4CCOCC4)c23)c1`, for which the % of control in assay [5] turned out to be 6.4%. On to `CCN(CC)CCCCNc1ncc2cc(-c3cc(OC)cc(OC)c3)c(NC(=O)NC(C)(C)C)nc2n1`, for which the % of control in [6] came out at 100%. `COc1cc(Nc2nc(C)cc(-c3cnn4nc(OC)ccc34)n2)cc(C(F)(F)F)c1`: the % of control in [7] came to 75%. `COc1cc(C(=O)N2CC[C@@H](O)[C@@H](N)C2)cc2nc(-c3cc4ccccc4n3CC3CC3)n(C)c12` yielded a pXC50 in assay [8] of 4.1 M.

As to `C=CC(=O)Nc1cc(-n2c(=O)ccc3cnc4ccc(-c5ccc(NS(C)(=O)=O)cc5)cc4c32)ccc1C`, the % of control in assay [9] (at 1 µM) was 92%; in assay [9] (at 10 µM) it was 95%. As to `O[C@H]1CC[C@H](Nc2ncc3nc(Nc4c(F)cc(F)cc4F)n([C@H]4CCOC4)c3n2)CC1`, in assay [10], the % of control came to 62%.
